Experimental data published in EP0125439A2, “3,6-Disubstituted-1,8-naphthalimides and methods for their production and use” (WARNER-LAMBERT COMPANY, priority 1983, dated 1984).
Where a name gives a salt, the structure may show the parent alone. Read-outs that look alike come from different tables or passages of the source.

Columns and labels:
mouse tumor line L1210 = assay: growth inhibition of L1210 in suspension cell culture; format: cell-based; conditions: read-out: L1210 Leukemia In Vitro ID50
Experimental: In another test protocol, growth-inhibitory effects are measured against the mouse tumor line L1210 in suspension cell culture. Cell cultures were initiated at a density of 50,000 cells/ml in medium RPMI 1630 supplemented with 10 percent fetal calf serum. Composition of this culture medium and details of the culture procedure follow the published method (Journal of the National Cancer Institute 36, 405-415, 1966). Cultures are maintained at 37 degrees in stationary suspension culture under a 95 percent air + 5 percent C02 atmosphere. Test compounds are added to treated cultures at the time of initiation, and are present continually. After 72 hours, 40-fold dilutions of drug- treated and untreated control cultures are prepared in 0.9 percent NaCl solution, and cells are counted on an electronic particle counter. The growth-inhibitory effects are expressed as IDSO values, namely, test compound inhibitory dosages or concentrations required to decrease cell count in treated cultures to 50 percent of the cell count of untreated control cultures.

[1] = test system: Streptococcus faecalis 05045; assay: in vitro antibacterial/antifungal (ABF) agar-disk diffusion assay; format: cell-based; conditions: Enterococcus faecalis, Dose 500 mg/ml, AM-09 medium, read-out: Inhibition Zone Diameter S. Faecalis
Experimental: (§1) Another test protocol is the in vitro anti- bacterial/antifungal (ABF) test. Compounds are tested for antimicrobial activity in an agar-disk diffusion assay, a standard microbiological technique for testing antibiotics. After incubation of each culture with a test compound, a zone of inhibition is determined. The zone diameter (mm) of active compounds ranges from a minimum of 13.5 mm to as high as 60 mm, with a greater diameter reflecting higher activity. For convenience, values are reported for the gram-negative bacterial species (Escherichia coli 04863), two gram positive bacteria (Bacillus subtilis 04555 and Streptococcus faecalis 05045 utilizing AM-09 medium), and one mycelial fungus (Penicillium avellaneum M2988).

Escherichia coli 04863 = assay: as above; format: cell-based; conditions: Dose 500 mg/ml, read-out: Inhibition Zone Diameter E. Coli
Experimental: as §1

[2] = test system: Penicillium avellaneum M2988; assay: as above; format: cell-based; conditions: Hamigera avellanea, read-out: Inhibition Zone Diameter P. avellaneum; for zone of inhibition at 500000 µg/mL: Dose 500 mg/ml
Experimental: as §1

Bacillus subtilis 04555 = assay: as above; format: cell-based; conditions: Dose 100 mg/ml, read-out: Inhibition Zone Diameter B. Subtilis
Experimental: as §1

HCT-8 cells = assay: in vitro proliferating human colon adenocarcinoma (HCA) cell screen; format: cell-based; conditions: 60 - 65 hours with compound, nuclei count, 50% inhibition of growth, read-out: ID50 (the source's name)
Experimental: One test protocol is the in vitro proliferating human colon adenocarcinoma (HCA) cell screen. In this test, HCT-8 cells (HCA cell line received from Yale University) are trypsinized using trypsin-EDTA. A single cell suspension is achieved by passing the cells through a 26 gauge needle with a 20 cc syringe. A cell suspension is prepared using RPMI 1640 + 10% FCS + 50 ug/ml gentamicin sulfate with a cell concentration of approximately 30t000 cells/ml. The cell suspension is dispensed in Linbro 24-well plates; 1 ml/well. The plates are incubated for approximately 48 hours at 37 degrees C. in a 5% C02 atmosphere. At this time test compounds are added in the appropriate concentration. Five ul of the 200 ug/ml stock solution is added to each well in a primary test. Ten ul of the appropriate dilution is added to each well for a titration test. The plates are reincubated an additional 60 - 65 hours at 37 degrees C. in a 5% C02 atmosphere. The cells are lysed using a mix of cationic surfactant, glacial acetic acid and sodium chloride. Two ml of the lysed cell suspension from each well is added to 8 ml of diluent. The number of nuclei is determined using a Coulter counter (ZBI model), and a percent growth for each drug concentration is calculated. From this, an ID50 (molar concentration of compound that results in 50% inhibition of growth) is determined.

B16 melanoma = assay: solid tumor B16 melanoma in mice; format: in vivo; conditions: survival time treated/control
Experimental: Another test protocol utilizes the solid tumor B16 melanoma in mice. The tumor is inoculated by intraperitoneal injection. The test compounds are administered intraperitoneally once daily for nine consecutive days at various doses following tumor inoculation. A ratio of survival time for treated (T)/control (C) animals is calculated. A criterion for efficacy is a ratio T/C times 100 greater than or equal to 125. See Cancer Therapy Reviews, 7, 167 (1980) and references cited therein for further details and interpretation of the test.

[3] = test system: lymphocytic leukemia P388; assay: in vivo lymphocytic leukemia P388 test; design: species or system CD2Fl mice; conditions: survival time treated/control
Experimental: Another test protocol is the in vivo lymphocytic leukemia P388 test. The animals used are either male or female CD2Fl mice, six or seven animals per test group. The tumor transplant is by intraperitoneal injection of dilute ascitic fluid containing cells of lymphocytic leukemia P388. The test compounds are administered intraperitoneally once daily for five consecutive days at various doses following tumor inoculation. The animals are weighed and survivors are recorded on a regular basis for 30 days. A compound is designated "toxic" if, at a given dose, all animals died prior to four days after the first injection of drug. A ratio of survival time for treated (T)/control (C) animals is calculated. A criterion for efficacy is a ratio T/C times 100 greater than or equal to 125. See Cancer Chemotherapy Reports, Part 3, 3, 1 (1972) for a comprehensive discussion of the protocol.

SMILES | IC50 (mouse tumor line L1210; L1210, 72 h) [nM] | zone of inhibition at 500000 µg/mL [1] [mm] | zone of inhibition at 500000 µg/mL (Escherichia coli 04863) [mm] | zone of inhibition at 500000 µg/mL [2] [mm] | zone of inhibition at 100000 µg/mL (Bacillus subtilis 04555) [mm] | IC50 (HCT-8 cells) [nM] | IC50 (mouse tumor line L1210; L1210, 72 hours, cell count 50 percent of untreated control) [nM] | B16 Melanoma T/C X100 (B16 melanoma; Dose 1.00 mg/kg intraperitoneally once daily for nine days) [%] | P388 Leukemia In Mice T/C X100 ([3]; Dose 3.12 mg/kg intraperitoneally once daily for five days) [%] | B16 Melanoma T/C X100 (B16 melanoma; Dose 12.5 mg/kg intraperitoneally once daily for nine days) [%] | zone of inhibition at 3 g/mL ([2]; Dose 3000 mg/ml) [mm] | P388 Leukemia In Mice T/C X100 ([3]; Dose 1.56 mg/kg intraperitoneally once daily for five days) [%]
O=C1c2cc([N+](=O)[O-])cc3cc([N+](=O)[O-])cc(c23)C(=O)N1CCN1CCCC1 [CH2CH2N(CH2)4, 3,6-Dinitro-N[2-(pyrrolidinyl)ethyl]-1,8-naphthalimide Hydrocholoride] | 83 | 18 | 17 | 22 | 16 | 180 |  |  |  |  |  | 
CN(C)CCN1C(=O)c2cc([N+](=O)[O-])cc3cc([N+](=O)[O-])cc(c23)C1=O [CH2CH2NMe2, N-[2-(Dimethylamino)ethyl]-3,6,-dinitro-1,8-naphtalamide, Hydrochloride] |  |  |  |  |  |  | 36 | 125 | 167 |  |  | 
O=C1c2cc([N+](=O)[O-])cc3cc([N+](=O)[O-])cc(c23)C(=O)N1CCN1CCCCC1 [CH2CH2N(CH2)5, 3,6-Dinitro-N-[2-(piperidinyl)ethyl]-1,8-naphthalimide, Hydrochloride] | 290 | 19 | 16 | 26 | 24 | 480 |  |  |  | 135 |  | 
O=C1c2cc([N+](=O)[O-])cc3cc([N+](=O)[O-])cc(c23)C(=O)N1CCN1CCOCC1 [3,6-Dinitro-N-[2-(morpholino)ethyl]-1,8-naphthalimide] | 1100 | 14 |  |  | 22 | 860 |  |  |  |  | 15 | 
CCN(CC)CCN1C(=O)c2cc([N+](=O)[O-])cc3cc([N+](=O)[O-])cc(c23)C1=O [CH2CH2NEt2, N-[2-(Diethylamino)ethyl]-3,6-dinitro-1.8-naphthalimide Hydrochloride] | 350 |  |  |  |  | 960 |  |  |  |  |  | 155
